According to PubChem BioAssay AID256 (DTP/NCI, 2004):
Values joined by “and” are separate entries in the source; they are usually repeats but may differ in a detail not shown here. Equal values may be shown once. Toxic doses and inconclusive results are not listed.

Test system: CD2F1 mice, L1210 leukemia ip, survival T/C
Assay: NCI In Vivo Anticancer Drug Screen. Data for tumor model L1210 Leukemia (intraperitoneal) in CD2F1 (CDF1) mice
Details: higher = longer survival
Outline: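 In this screen, transplantable tumors were grown in mice given either the compound or its vehicle. Results were expressed as the treated measurement relative to the control measurement.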

## CC1=CC(=O)[C@@H](O)[C@]2(C)[C@H]3[C@@]4(O)OC[C@]35[C@H]([C@@H](C)[C@H]4O)[C@@H](OC(=O)c3ccccc3)C(=O)O[C@@H]5C[C@@H]12
endpoint: mean survival time, dose: 0.25 mg/kg/injection, schedule: Q01DX009 (ip), vehicle: saline with Tween-80
  T/C: 105 % of control
endpoint: mean survival time, dose: 0.5 mg/kg/injection, schedule: Q01DX009 (ip), vehicle: saline with Tween-80
  T/C: 100 % of control
endpoint: mean survival time, dose: 1.0 mg/kg/injection, schedule: Q01DX009 (ip), vehicle: saline with Tween-80
  T/C: 100 % of control
endpoint: mean survival time, dose: 2.0 mg/kg/injection, schedule: Q01DX009 (ip), vehicle: saline with Tween-80
  T/C: 105 % of control

## Nc1nc([Se])c2ncn(C3OC(CO)C(O)C3O)c2n1 (stereo not drawn)
endpoint: mean survival time, dose: 1.0 mg/kg/injection, schedule: Q01DX009 (ip), vehicle: saline
  T/C: 123 % of control
endpoint: mean survival time, dose: 2.0 mg/kg/injection, schedule: Q01DX009 (ip), vehicle: distilled water + Tween-80
  T/C: 114 % of control
endpoint: mean survival time, dose: 2.0 mg/kg/injection, schedule: Q01DX009 (ip), vehicle: water
  T/C: 119 % of control
endpoint: mean survival time, dose: 2.0 mg/kg/injection, schedule: Q04DX003 (ip), vehicle: DMSO
  T/C: 117 % of control
endpoint: mean survival time, dose: 2.0 mg/kg/injection, schedule: Q04DX003 (ip), vehicle: clinical formulation
  T/C: 116 % of control and 109 % of control
endpoint: mean survival time, dose: 2.0 mg/kg/injection, schedule: Q04DX003 (ip), vehicle: saline
  T/C: 115 % of control and 119 % of control
endpoint: mean survival time, dose: 2.5 mg/kg/injection, schedule: Q01DX005 (iv), vehicle: water
  T/C: 95 % of control
endpoint: mean survival time, dose: 4.0 mg/kg/injection, schedule: Q04DX003 (ip), vehicle: DMSO
  T/C: 113 % of control
endpoint: mean survival time, dose: 4.0 mg/kg/injection, schedule: Q04DX003 (ip), vehicle: clinical formulation
  T/C: 113 % of control
endpoint: mean survival time, dose: 5.0 mg/kg/injection, schedule: Q01DX005 (iv), vehicle: water
  T/C: 113 % of control
endpoint: mean survival time, dose: 8.0 mg/kg/injection, schedule: Q04DX003 (ip), vehicle: clinical formulation
  T/C: 115 % of control
endpoint: mean survival time, dose: 12.5 mg/kg/injection, schedule: Q01DX005 (ip), vehicle: saline
  T/C: 169 % of control
endpoint: mean survival time, dose: 16.0 mg/kg/injection, schedule: Q01DX009 (ip), vehicle: distilled water + Tween-80
  T/C: 150 % of control
endpoint: mean survival time, dose: 16.0 mg/kg/injection, schedule: Q01DX009 (ip), vehicle: water
  T/C: 119 % of control
endpoint: mean survival time, dose: 25.0 mg/kg/injection, schedule: Q01DX005 (ip), vehicle: saline
  T/C: 191 % of control
endpoint: mean survival time, dose: 32.0 mg/kg/injection, schedule: Q01DX009 (ip), vehicle: distilled water + Tween-80
  T/C: 156 % of control
endpoint: mean survival time, dose: 32.0 mg/kg/injection, schedule: Q01DX009 (ip), vehicle: saline
  T/C: 116 % of control and 117 % of control
endpoint: mean survival time, dose: 32.0 mg/kg/injection, schedule: Q01DX009 (ip), vehicle: water
  T/C: 92 % of control
endpoint: mean survival time, dose: 40.0 mg/kg/injection, schedule: Q01DX005 (iv), vehicle: water
  T/C: 151 % of control
endpoint: mean survival time, dose: 50.0 mg/kg/injection, schedule: Q01DX005 (ip), vehicle: saline
  T/C: 187 % of control
endpoint: mean survival time, dose: 64.0 mg/kg/injection, schedule: Q01DX009 (ip), vehicle: saline
  T/C: 87 % of control
endpoint: median survival time, dose: 1.0 mg/kg/injection, schedule: Q01DX009 (sc), vehicle: DMSO
  T/C: 100 % of control
endpoint: median survival time, dose: 1.0 mg/kg/injection, schedule: Q03HX016 (ip), vehicle: DMSO
  T/C: 153 % of control
endpoint: median survival time, dose: 1.0 mg/kg/injection, schedule: Q03HX024 (ip), vehicle: DMSO
  T/C: 150 % of control
endpoint: median survival time, dose: 2.0 mg/kg/injection, schedule: Q01DX009 (ip), vehicle: DMSO
  T/C: 172 % of control
endpoint: median survival time, dose: 2.0 mg/kg/injection, schedule: Q01DX009 (sc), vehicle: DMSO
  T/C: 111 % of control
endpoint: median survival time, dose: 2.0 mg/kg/injection, schedule: Q03HX008 (ip), vehicle: DMSO
  T/C: 171 % of control
endpoint: median survival time, dose: 2.0 mg/kg/injection, schedule: Q03HX016 (ip), vehicle: DMSO
  T/C: 162 % of control
endpoint: median survival time, dose: 2.0 mg/kg/injection, schedule: Q03HX024 (ip), vehicle: DMSO
  T/C: 178 % of control
endpoint: median survival time, dose: 4.0 mg/kg/injection, schedule: Q01DX009 (ip), vehicle: DMSO
  T/C: 200 % of control
endpoint: median survival time, dose: 4.0 mg/kg/injection, schedule: Q01DX009 (oral), vehicle: DMSO
  T/C: 107 % of control
endpoint: median survival time, dose: 4.0 mg/kg/injection, schedule: Q03HX008 (ip), vehicle: DMSO
  T/C: 173 % of control
endpoint: median survival time, dose: 4.0 mg/kg/injection, schedule: Q03HX016 (ip), vehicle: DMSO
  T/C: 185 % of control
endpoint: median survival time, dose: 4.0 mg/kg/injection, schedule: Q03HX024 (ip), vehicle: DMSO
  T/C: 175 % of control
endpoint: median survival time, dose: 4.0 mg/kg/injection, schedule: Q08DX002 (ip), vehicle: DMSO
  T/C: 123 % of control
endpoint: median survival time, dose: 8.0 mg/kg/injection, schedule: Q01DX001 (sc), vehicle: DMSO
  T/C: 112 % of control
endpoint: median survival time, dose: 8.0 mg/kg/injection, schedule: Q01DX009 (ip), vehicle: DMSO
  T/C: 175 % of control
endpoint: median survival time, dose: 8.0 mg/kg/injection, schedule: Q01DX009 (oral), vehicle: DMSO
  T/C: 123 % of control
endpoint: median survival time, dose: 8.0 mg/kg/injection, schedule: Q01DX009 (sc), vehicle: DMSO
  T/C: 166 % of control
endpoint: median survival time, dose: 8.0 mg/kg/injection, schedule: Q03HX008 (ip), vehicle: DMSO
  T/C: 176 % of control
endpoint: median survival time, dose: 8.0 mg/kg/injection, schedule: Q03HX016 (ip), vehicle: DMSO
  T/C: 176 % of control
endpoint: median survival time, dose: 8.0 mg/kg/injection, schedule: Q03HX024 (ip), vehicle: DMSO
  T/C: 185 % of control
endpoint: median survival time, dose: 8.0 mg/kg/injection, schedule: Q04DX003 (ip), vehicle: DMSO
  T/C: 166 % of control
endpoint: median survival time, dose: 16.0 mg/kg/injection, schedule: Q01DX001 (oral), vehicle: DMSO
  T/C: 120 % of control
endpoint: median survival time, dose: 16.0 mg/kg/injection, schedule: Q01DX001 (sc), vehicle: DMSO
  T/C: 121 % of control
endpoint: median survival time, dose: 16.0 mg/kg/injection, schedule: Q01DX009 (ip), vehicle: DMSO
  T/C: 191 % of control
endpoint: median survival time, dose: 16.0 mg/kg/injection, schedule: Q01DX009 (oral), vehicle: DMSO
  T/C: 158 % of control
endpoint: median survival time, dose: 16.0 mg/kg/injection, schedule: Q01DX009 (sc), vehicle: DMSO
  T/C: 187 % of control
endpoint: median survival time, dose: 16.0 mg/kg/injection, schedule: Q04DX003 (ip), vehicle: DMSO
  T/C: 178 % of control
endpoint: median survival time, dose: 16.0 mg/kg/injection, schedule: Q08DX002 (ip), vehicle: DMSO
  T/C: 102 % of control
endpoint: median survival time, dose: 32.0 mg/kg/injection, schedule: Q01DX001 (oral), vehicle: DMSO
  T/C: 117 % of control
endpoint: median survival time, dose: 32.0 mg/kg/injection, schedule: Q01DX009 (ip), vehicle: DMSO
  T/C: 178 % of control
endpoint: median survival time, dose: 32.0 mg/kg/injection, schedule: Q01DX009 (oral), vehicle: DMSO
  T/C: 167 % of control
endpoint: median survival time, dose: 32.0 mg/kg/injection, schedule: Q01DX009 (sc), vehicle: DMSO
  T/C: 160 % of control
endpoint: median survival time, dose: 32.0 mg/kg/injection, schedule: Q04DX003 (ip), vehicle: DMSO
  T/C: 183 % of control
endpoint: median survival time, dose: 64.0 mg/kg/injection, schedule: Q01DX009 (ip), vehicle: DMSO
  T/C: 116 % of control
endpoint: median survival time, dose: 64.0 mg/kg/injection, schedule: Q01DX009 (oral), vehicle: DMSO
  T/C: 160 % of control
endpoint: median survival time, dose: 64.0 mg/kg/injection, schedule: Q01DX009 (sc), vehicle: DMSO
  T/C: 111 % of control
endpoint: median survival time, dose: 64.0 mg/kg/injection, schedule: Q04DX003 (ip), vehicle: DMSO
  T/C: 191 % of control
endpoint: median survival time, dose: 128.0 mg/kg/injection, schedule: Q01DX001 (ip), vehicle: DMSO
  T/C: 121 % of control

## OCC1OC(n2cnc3c(NCCc4ccccc4)ncnc32)C(O)C1O (stereo not drawn)
endpoint: mean survival time, dose: 12.5 mg/kg/injection, schedule: Q01DX005 (ip), vehicle: other
  T/C: 101 % of control
endpoint: mean survival time, dose: 25.0 mg/kg/injection, schedule: Q01DX005 (ip), vehicle: other
  T/C: 110 % of control
endpoint: mean survival time, dose: 50.0 mg/kg/injection, schedule: Q01DX005 (ip), vehicle: other
  T/C: 92 % of control

## CCCC[n+]1ccccc1Cc1ccccc1
endpoint: mean survival time, dose: 25.0 mg/kg/injection, schedule: Q04DX003 (ip), vehicle: saline
  T/C: 101 % of control

## Cc1cc(C)c2c(C#N)cn(-c3cccc(Cl)c3)c2n1
endpoint: mean survival time, dose: 100.0 mg/kg/injection, schedule: Q04DX003 (ip), vehicle: saline
  T/C: 97 % of control

## Cc1ccc(S(=O)(=O)N/N=C/Cc2c(C)cc(C)cc2C)cc1
endpoint: median survival time, dose: 25.0 mg/kg/injection, schedule: Q04DX002 (ip), vehicle: saline with Tween-80
  T/C: 100 % of control
endpoint: median survival time, dose: 50.0 mg/kg/injection, schedule: Q04DX002 (ip), vehicle: saline with Tween-80
  T/C: 100 % of control
endpoint: median survival time, dose: 100.0 mg/kg/injection, schedule: Q04DX002 (ip), vehicle: saline with Tween-80
  T/C: 100 % of control
endpoint: median survival time, dose: 200.0 mg/kg/injection, schedule: Q04DX002 (ip), vehicle: saline with Tween-80
  T/C: 110 % of control
